Measurements from the supplement of paper PMC11451515.

How the values were obtained:
Details in all cases: 48 h
NOMO1 [1] = assay: cell viability relative to DMSO control; higher = less cytotoxic
How it was run: (§1)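 Viability is expressed as a percentage of DMSO wells within each plate, and cell-free wells serve as background. Seeding densities in the 1536-well plates (5 μl) were 500 cells/well for NOMO1 or SEM leukemia cells and 1000 cells/well for P12-Ichikawa. Each line was adapted for at least four passages in each medium. Library compounds in DMSO were pin-dosed at 47 μM to 0.79 nM (11 points, threefold), and CellTiter-Glo One luminescence was read after 48 h at 37°C.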

P12-Ichikawa [2] = assay: as above
How it was run: as §1

SEM cells [3] = assay: as above
How it was run: as §1

NOMO1 [4] = assay: AUC of viability dose-response curve (% viability x log10 dose units); higher = less sensitive
How it was run: (§2)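 Leukemia cells adapted to each medium (500 or 1000 cells/well, 1536-well plates) were exposed to library compounds in DMSO for 48 h at 37°C at 11 threefold doses, 47 μM to 0.79 nM. Luminescence by CellTiter-Glo One was normalised per plate to DMSO and cell-free wells, then fitted with a four-parameter log-logistic curve on log10 dose. Curves above full viability were scaled and quality-control failures removed before area under the curve was integrated by trapezoidal rule.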

P12-Ichikawa [5] = assay: as above
How it was run: as §2

SEM cells [6] = assay: as above
How it was run: as §2

O=C(O)c1cccc(-c2noc(-c3ccccc3F)n2)c1
cell viability [%]
Details | NOMO1 [1] | P12-Ichikawa [2] | SEM cells [3]
HPLM + 10% dialyzed FBS, 0.000781 µM | 106 | 99.7 | 106
HPLM + 10% dialyzed FBS, 0.00234 µM | 111 | 106 | 109
HPLM + 10% dialyzed FBS, 0.00702 µM | 100 | 104 | 92.3
HPLM + 10% dialyzed FBS, 0.0211 µM | 133 | 100 | 100
HPLM + 10% dialyzed FBS, 0.0632 µM | 112 | 102 | 101
HPLM + 10% dialyzed FBS, 0.19 µM | 121 | 105 | 110
HPLM + 10% dialyzed FBS, 0.569 µM | 109 | 102 | 102
HPLM + 10% dialyzed FBS, 1.71 µM | 107 | 98.6 | 104
HPLM + 10% dialyzed FBS, 5.12 µM | 110 | 101 | 104
HPLM + 10% dialyzed FBS, 15.4 µM | 96.8 | 100 | 92.3
HPLM + 10% dialyzed FBS, 46.1 µM | 101 | 95.3 | 88.1
RPMI 5 mM glucose + 10% FBS, 0.000781 µM | 86.3 | 96.5 | 88.1
RPMI 5 mM glucose + 10% FBS, 0.00234 µM | 90.6 | 98.2 | 94.7
RPMI 5 mM glucose + 10% FBS, 0.00702 µM | 106 | 97.5 | 105
RPMI 5 mM glucose + 10% FBS, 0.0211 µM | 103 | 106 | 94.1
RPMI 5 mM glucose + 10% FBS, 0.0632 µM | 86.2 | 106 | 99.6
RPMI 5 mM glucose + 10% FBS, 0.19 µM | 98 | 106 | 107
RPMI 5 mM glucose + 10% FBS, 0.569 µM | 99.6 | 101 | 101
RPMI 5 mM glucose + 10% FBS, 1.71 µM | 94.7 | 98.7 | 99.3
RPMI 5 mM glucose + 10% FBS, 5.12 µM | 94.2 | 90.9 | 98.3
RPMI 5 mM glucose + 10% FBS, 15.4 µM | 91.9 | 93 | 84.3
RPMI 5 mM glucose + 10% FBS, 46.1 µM | 89.9 | 92.7 | 73.5
RPMI 5 mM glucose + 10% dialyzed FBS, 0.000781 µM | 93.2 | 102 | 87.1
RPMI 5 mM glucose + 10% dialyzed FBS, 0.00234 µM | 101 | 105 | 106
RPMI 5 mM glucose + 10% dialyzed FBS, 0.00702 µM | 101 | 94.9 | 106
RPMI 5 mM glucose + 10% dialyzed FBS, 0.0211 µM | 95.2 | 103 | 108
RPMI 5 mM glucose + 10% dialyzed FBS, 0.0632 µM | 96.6 | 103 | 115
RPMI 5 mM glucose + 10% dialyzed FBS, 0.19 µM | 98.9 | 97.1 | 94.2
RPMI 5 mM glucose + 10% dialyzed FBS, 0.569 µM | 112 | 95.1 | 122
RPMI 5 mM glucose + 10% dialyzed FBS, 1.71 µM | 95.8 | 102 | 112
RPMI 5 mM glucose + 10% dialyzed FBS, 5.12 µM | 103 | 90.6 | 108
RPMI 5 mM glucose + 10% dialyzed FBS, 15.4 µM | 87.8 | 102 | 95.7
RPMI 5 mM glucose + 10% dialyzed FBS, 46.1 µM | 81.3 | 98.7 | 85.7

AUC of viability dose-response curve
Details | NOMO1 [4] | P12-Ichikawa [5] | SEM cells [6]
HPLM + 10% dialyzed FBS | 456 | 470 | 454
RPMI 5 mM glucose + 10% FBS | 451 | 465 | 457
RPMI 5 mM glucose + 10% dialyzed FBS | 465 | 465 | 472

CN(C[C@@H]1COCCO1)[S+]([O-])(=O)NC2=CC3=C(C=C2)\C=C/C4=C(C=C(C=N4)C5=C[N](C)N=C5)C3=O
cell viability [%]
Details | NOMO1 [1] | P12-Ichikawa [2] | SEM cells [3]
HPLM + 10% dialyzed FBS, 0.000781 µM | 89.6 | 93.4 | 85.5
HPLM + 10% dialyzed FBS, 0.00234 µM | 107 | 99.6 | 93.9
HPLM + 10% dialyzed FBS, 0.00702 µM | 92.5 | 94.1 | 92.6
HPLM + 10% dialyzed FBS, 0.0211 µM | 92.1 | 101 | 86.4
HPLM + 10% dialyzed FBS, 0.0632 µM | 84.5 | 93.7 | 79.5
HPLM + 10% dialyzed FBS, 0.19 µM | 72.2 | 90.1 | 80.8
HPLM + 10% dialyzed FBS, 0.569 µM | 62.2 | 71.8 | 69.9
HPLM + 10% dialyzed FBS, 1.71 µM | 47.1 | 67.4 | 48.8
HPLM + 10% dialyzed FBS, 5.12 µM | 41.1 | 54.7 | 29.8
HPLM + 10% dialyzed FBS, 15.4 µM | 26.2 | 49.8 | 22.4
HPLM + 10% dialyzed FBS, 46.1 µM | 26.6 | 52.4 | 24.8
RPMI 5 mM glucose + 10% FBS, 0.000781 µM | 92.2 | 95.6 | 113
RPMI 5 mM glucose + 10% FBS, 0.00234 µM | 101 | 92.7 | 86.6
RPMI 5 mM glucose + 10% FBS, 0.00702 µM | 90.6 | 103 | 110
RPMI 5 mM glucose + 10% FBS, 0.0211 µM | 114 | 95.2 | 109
RPMI 5 mM glucose + 10% FBS, 0.0632 µM | 93.8 | 102 | 85.5
RPMI 5 mM glucose + 10% FBS, 0.19 µM | 91.2 | 96.1 | 76.3
RPMI 5 mM glucose + 10% FBS, 0.569 µM | 86.9 | 76.6 | 53.1
RPMI 5 mM glucose + 10% FBS, 1.71 µM | 57.1 | 53.5 | 35.2
RPMI 5 mM glucose + 10% FBS, 5.12 µM | 49.5 | 48.8 | 22.2
RPMI 5 mM glucose + 10% FBS, 15.4 µM | 35.2 | 42.2 | 16
RPMI 5 mM glucose + 10% FBS, 46.1 µM | 33.3 | 50 | 16.4
RPMI 5 mM glucose + 10% dialyzed FBS, 0.000781 µM | 84.5 | 94 | 78.9
RPMI 5 mM glucose + 10% dialyzed FBS, 0.00234 µM | 104 | 97.1 | 96.4
RPMI 5 mM glucose + 10% dialyzed FBS, 0.00702 µM | 98.4 | 88.7 | 91.2
RPMI 5 mM glucose + 10% dialyzed FBS, 0.0211 µM | 87.4 | 91.2 | 86.8
RPMI 5 mM glucose + 10% dialyzed FBS, 0.0632 µM | 99.2 | 105 | 85.2
RPMI 5 mM glucose + 10% dialyzed FBS, 0.19 µM | 91.9 | 88.9 | 66.3
RPMI 5 mM glucose + 10% dialyzed FBS, 0.569 µM | 73.7 | 75.3 | 60.8
RPMI 5 mM glucose + 10% dialyzed FBS, 1.71 µM | 52.1 | 53.6 | 38.5
RPMI 5 mM glucose + 10% dialyzed FBS, 5.12 µM | 48.9 | 43.3 | 24.5
RPMI 5 mM glucose + 10% dialyzed FBS, 15.4 µM | 39.8 | 37.6 | 17.3
RPMI 5 mM glucose + 10% dialyzed FBS, 46.1 µM | 31.6 | 41.5 | 18.3

AUC of viability dose-response curve
Details | NOMO1 [4] | P12-Ichikawa [5] | SEM cells [6]
HPLM + 10% dialyzed FBS | 324 | 379 | 314
RPMI 5 mM glucose + 10% FBS | 371 | 374 | 301
RPMI 5 mM glucose + 10% dialyzed FBS | 355 | 357 | 292

CN(CC(=O)N(Cc1ccc(C2CCCCC2)cc1)c1ccc(C(=O)O)c(O)c1)[S+](=O)([O-])c1c(F)c(F)c(F)c(F)c1F
cell viability [%]
Details | NOMO1 [1] | P12-Ichikawa [2] | SEM cells [3]
HPLM + 10% dialyzed FBS, 0.000781 µM | 101 | 93 | 83.5
HPLM + 10% dialyzed FBS, 0.00234 µM | 109 | 100 | 94.7
HPLM + 10% dialyzed FBS, 0.00702 µM | 104 | 94.2 | 104
HPLM + 10% dialyzed FBS, 0.0211 µM | 101 | 102 | 95.8
HPLM + 10% dialyzed FBS, 0.0632 µM | 117 | 106 | 103
HPLM + 10% dialyzed FBS, 0.19 µM | 107 | 107 | 93.7
HPLM + 10% dialyzed FBS, 0.569 µM | 101 | 107 | 92.7
HPLM + 10% dialyzed FBS, 1.71 µM | 102 | 101 | 97.7
HPLM + 10% dialyzed FBS, 5.12 µM | 95.1 | 91.7 | 84.8
HPLM + 10% dialyzed FBS, 15.4 µM | 83.5 | 75.3 | 86.5
HPLM + 10% dialyzed FBS, 46.1 µM | 31.7 | 5.29 | 31.1
RPMI 5 mM glucose + 10% FBS, 0.000781 µM | 92.8 | 93 | 80.8
RPMI 5 mM glucose + 10% FBS, 0.00234 µM | 82.5 | 100 | 104
RPMI 5 mM glucose + 10% FBS, 0.00702 µM | 88.4 | 99.5 | 90
RPMI 5 mM glucose + 10% FBS, 0.0211 µM | 84.3 | 101 | 93.1
RPMI 5 mM glucose + 10% FBS, 0.0632 µM | 88.5 | 99.7 | 88.9
RPMI 5 mM glucose + 10% FBS, 0.19 µM | 88.6 | 103 | 101
RPMI 5 mM glucose + 10% FBS, 0.569 µM | 86.9 | 100 | 103
RPMI 5 mM glucose + 10% FBS, 1.71 µM | 87.7 | 105 | 97.8
RPMI 5 mM glucose + 10% FBS, 5.12 µM | 83.9 | 101 | 77.4
RPMI 5 mM glucose + 10% FBS, 15.4 µM | 83.4 | 92.5 | 54.8
RPMI 5 mM glucose + 10% FBS, 46.1 µM | 63 | 51.3 | 6.03
RPMI 5 mM glucose + 10% dialyzed FBS, 0.000781 µM | 74.1 | 87.8 | 87
RPMI 5 mM glucose + 10% dialyzed FBS, 0.00234 µM | 95.2 | 90.1 | 91.1
RPMI 5 mM glucose + 10% dialyzed FBS, 0.00702 µM | 103 | 91.4 | 93.1
RPMI 5 mM glucose + 10% dialyzed FBS, 0.0211 µM | 94.1 | 93.9 | 89.2
RPMI 5 mM glucose + 10% dialyzed FBS, 0.0632 µM | 93.8 | 96.6 | 103
RPMI 5 mM glucose + 10% dialyzed FBS, 0.19 µM | 110 | 87.1 | 101
RPMI 5 mM glucose + 10% dialyzed FBS, 0.569 µM | 95.4 | 94.3 | 84.5
RPMI 5 mM glucose + 10% dialyzed FBS, 1.71 µM | 95.3 | 96 | 91.3
RPMI 5 mM glucose + 10% dialyzed FBS, 5.12 µM | 95.6 | 97.9 | 80.3
RPMI 5 mM glucose + 10% dialyzed FBS, 15.4 µM | 86.6 | 79.6 | 66.6
RPMI 5 mM glucose + 10% dialyzed FBS, 46.1 µM | 51.8 | 29.6 | 19.9

AUC of viability dose-response curve
Details | NOMO1 [4] | P12-Ichikawa [5] | SEM cells [6]
HPLM + 10% dialyzed FBS | 447 | 440 | 432
RPMI 5 mM glucose + 10% FBS | 408 | 462 | 404
RPMI 5 mM glucose + 10% dialyzed FBS | 440 | 421 | 405
